Data set [1] has as its system polyamine transport in T cells (CD4+ and CD4- lymphocytes, whole human blood). The data set is described as follows: Ex vivo blood-based PD bioassay: C5 (fluorescent spermine) uptake into stimulated T cells by FACS. It is filed as cell-based. How it is done:
To evaluate the target engagement activity of AMXT 1501 after oral administration in human patients, an ex vivo PD assay assessing lymphocyte spermine uptake and inhibition of uptake by AMXT 1501 was developed. Briefly, uptake of a fluorescent-labeled spermine analog conjugate (Fl-Spm, Compound 5, C5, Annereau, J. P., et al., A fluorescent biomarker of the polyamine transport system to select patients with AML for F14512 treatment. Leuk Res. 2010 October; 34(10):1383-9) was assayed by fluorescence-activated cell sorting (FACS) analysis in CD4+ and CD4^− T cells in human blood samples stimulated with anti-CD3+ and anti-CD28+ antibodies.
Polyamine uptake in blood lymphocytes (CD4^+ or CD8^+ T cells) was measured at the same time points as the PK levels for AMXT 1501 were measured. Comparisons were made between uptake in the pre-treatment sample and samples taken over time following dosing.
Pharmacodynamic Bioassay. The purpose of this whole blood assay was to quantify the inhibition of polyamine transport in T cells in human subjects receiving AMXT 1501. Collected whole blood from subjects receiving AMXT 1501 was diluted with serum-free media and stimulated with anti-CD3 (T cell receptor engagement) and anti-CD28 (co-stimulatory signal) to drive T cell activation and proliferation for a total of three days. During the last 12-18 hours of culture, a fluorescently-labeled spermine analog (Fl-Spm, Compound 5, C5) was added to the in vitro culture to monitor polyamine uptake into cells. The functional activity (e.g., inhibitory effect) of AMXT 1501 on C5 uptake by T cells was then determined using flow cytometry by measuring the frequency and median fluorescence intensity (MFI) of C5 in T cells. Activation and proliferation of T cells is required for the uptake of C5; however, in the presence of high concentrations of AMXT 1501 in vitro, C5 uptake is inhibited despite active proliferation of T cells. Therefore, a whole blood sample spiked with high levels of AMXT 1501 prior to culture will be used as a positive control for each subject in this assay. […]
Background: In flow cytometry, cells or beads pass a laser one at a time.

A short description of data set [2]: Clinical plasma pharmacokinetics of oral DFMO (NCT03536728). It counts as in vivo. The note with it: human. An excerpt: Clinical Trial Outline. […] All solid tumor types are eligible for the trial. […] DFMO was delivered orally twice daily in gel capsules.

These results are taken from patent publication US20230321012A1 (priority 2021, published 2023).

As to `CCCCCCCCCCCCCCCC(=O)NCCCC[C@@H](N)C(=O)NCCCNCCCCNCCCN` [AMXT 1501, D-lys(palmitoyl)-spermine], the EC50 in data set [1] (Homo sapiens, T-cell, read-out: ED50, inhibition of fluorescent-labeled spermine uptake) was roughly 75 nM. In data set [1] (several Part 2 Cohort 3 patients, Day 7-8, oral AMXT 1501 dicaprate, preliminary), the “ex vivo target engagement activity in patient whole blood” value is “sustained AMXT 1501 target engagement activity”. Further, the “concentration of maximal fluorescent-labeled spermine uptake inhibition” value in data set [1] (whole human blood, absence of DFMO) amounted to 250 nM.

Regarding `NCCCC(N)(C(=O)O)C(F)F` (centres unmarked) [DFMO, difluoromethylornithine], in data set [2] (500 mg/day split BID, Day 28, n=14), the AUC (commonly the area under the concentration-time curve, a measure of exposure) came to 11400 ng·h/mL. In addition, the highest level in data set [2] (7-day repeat dosing of 1000 mg split BID, Cohort 3, n=6) (Cmax) was 4440 ng/mL.
